From patent US7320989B2, “Pyridine, pyrimidine, quinoline, quinazoline, and naphthalene urotensin-II receptor antagonists” (Encysive Pharmaceuticals, Inc., priority 2003, dated 2008)

Target: T1, human urotensin-II receptor (UTR cells) (Homo sapiens, UniProt Q9UKP6)
T1 construct: host or cells: 'UTR cells': TE-671 rhabdomyosarcoma cells (endogenous) or CHO cells stably expressing recombinant UTR
T1 sequence (Q9UKP6 1-389): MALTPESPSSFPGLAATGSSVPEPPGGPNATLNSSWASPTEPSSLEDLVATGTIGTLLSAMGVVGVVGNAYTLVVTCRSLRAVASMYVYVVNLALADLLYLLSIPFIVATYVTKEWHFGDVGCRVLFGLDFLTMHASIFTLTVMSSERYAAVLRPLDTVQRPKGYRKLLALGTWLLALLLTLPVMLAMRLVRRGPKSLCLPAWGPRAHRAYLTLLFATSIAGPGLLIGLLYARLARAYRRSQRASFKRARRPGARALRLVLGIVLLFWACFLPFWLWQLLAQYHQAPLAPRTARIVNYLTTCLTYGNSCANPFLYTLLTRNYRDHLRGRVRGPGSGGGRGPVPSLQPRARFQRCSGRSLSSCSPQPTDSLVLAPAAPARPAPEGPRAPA
Experiment: Inhibition of human urotensin-II-induced Ca2+ mobilization in UTR cells
Format: cell-based
Conditions: inhibition of signal induced by 1 nM human U-II, fluo-4AM, FlexStation
Experimental: 1) Inhibition of Human Urotensin-II-Induced Ca^2+ Mobilization in UTR Cells:
The function of urotensin-II was determined by measuring ligand-induced mobilization of intracellular Ca^2+ in a FlexStation scanning fluorometer (Molecular Devices). UTR cells were plated overnight at 50,000 cells/well in 96-well black/clear plates (Costar brand, Fisher 07-200-588). Cells were labeled with fluo-4AM dye (Molecular Probes, F-14201) in Hank's balanced salt solution (HBSS), 20 mM HEPES, 25 mM probenecid, pH 7.4, and then were washed with buffer. During the assay, cells were continuously monitored in the FlexStation and exposed to test compounds at a final concentration of 0.1% DMSO, followed by the addition of 1 nM human U-II. Fluorescence was read every 2 seconds for 2 minutes. The excitation and emission wavelengths used were 485 nm and 525 nm. Inhibition of the urotensin-II-induced signal was calculated using a nonlinear least square fitting program.

Q: How did the IC50 turn out when CN(C)CCOc1cc(Nc2ccnc3cc(C(F)(F)F)ccc23)ccc1Cl [Example 7, (4-chloro-3-(2-dimethylamino-ethoxy)-phenyl)-(7-trifluoromethyl-quinolin-4-yl)-amine] was run?
A: 6.5 µM
